Experimental data: US8618163B2, “Derivatives of cycloalkyl- and cycloalkenyl-1,2-dicarboxylic acid compounds having formyl peptide receptor like-1 (FPRL-1) agonist or antagonist activity” (Allergan, Inc., priority 2010, dated 2013)
Where two headings read alike, the source gives them in different places.

Assays:
FPRL1 = biological target: T1, FPRL1 (Homo sapiens, UniProt P25090); assay: compound-induced calcium activity on FLIPR Tetra in CHO-Gal6 cells stably expressing FPRL1; assay type: cell-based; conditions: for FPRL1 (rel. eff.): relative efficacy
T1 construct: expressed in transfected cells; host or cells: CHO-Gal6 (CHO cells with G alpha 16)
T1 sequence (P25090 1-351): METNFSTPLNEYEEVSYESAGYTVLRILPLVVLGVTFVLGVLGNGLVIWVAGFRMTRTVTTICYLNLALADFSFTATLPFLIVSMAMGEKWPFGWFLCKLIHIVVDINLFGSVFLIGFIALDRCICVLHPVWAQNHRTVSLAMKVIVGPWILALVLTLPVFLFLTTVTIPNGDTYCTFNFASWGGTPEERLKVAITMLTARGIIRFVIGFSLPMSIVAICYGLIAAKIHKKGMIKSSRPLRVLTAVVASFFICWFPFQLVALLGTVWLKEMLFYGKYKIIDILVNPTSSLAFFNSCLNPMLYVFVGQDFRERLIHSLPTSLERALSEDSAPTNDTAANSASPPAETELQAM
Protocol: (§1) CHO-Gal6 cells stably expressing FPRL1 were cultured in (F12, 10% FBS, 1% PSA, 400 μg/ml geneticin and 50 μg/ml hygromycin) and HEK-Gqi5 cells stable expressing FPR1 were cultured in (DMEM high glucose, 10% FBS, 1% PSA, 400 μg/ml geneticin and 50 μg/ml hygromycin). In general, the day before the experiment, 18,000 cells/well were plated in a 384-well clear bottom poly-d-lysine coated plate. The following day the screening compound-induced calcium activity was assayed on the FLIPR^Tetra. The drug plates were prepared in 384-well microplates using the EP3 and the MultiPROBE robotic liquid handling systems. Compounds were tested at concentrations ranging from 0.61 to 10,000 nM. Results are expressed as EC50 (nM) and efficacy values.

FPR1 = biological target: T2, FPR1 (Homo sapiens, UniProt P21462); assay: compound-induced calcium activity on FLIPR Tetra in HEK-Gqi5 cells stable expressing FPR1; assay type: cell-based; design: FPR1 (rel. eff.): scale not given here; conditions: for FPR1 (rel. eff.): relative efficacy
T2 construct: expressed in transfected cells; host or cells: HEK-Gqi5 (HEK cells with chimeric G protein Gqi5)
T2 sequence (P21462 1-350): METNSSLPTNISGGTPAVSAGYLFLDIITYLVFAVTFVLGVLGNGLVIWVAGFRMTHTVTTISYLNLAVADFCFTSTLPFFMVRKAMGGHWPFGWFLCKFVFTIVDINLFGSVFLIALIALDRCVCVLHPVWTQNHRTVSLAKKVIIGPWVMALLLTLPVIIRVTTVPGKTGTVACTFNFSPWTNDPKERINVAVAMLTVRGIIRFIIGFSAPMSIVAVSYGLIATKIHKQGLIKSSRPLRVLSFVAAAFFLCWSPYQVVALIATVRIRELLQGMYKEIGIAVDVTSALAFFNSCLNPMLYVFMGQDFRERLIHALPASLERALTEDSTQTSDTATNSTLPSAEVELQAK
Protocol: as §1

[1] = calcium, FLIPR Tetra, tested 0.61 to 10,000 nM, read-out: FPRL1 EC50
[2] = class symbol NA, read-out: FPR1 EC50 (NA = Not Active)
[3] = calcium, FLIPR Tetra, tested 0.61 to 10,000 nM, read-out: FPR1 EC50

Structure (SMILES)	EC50 (FPRL1; [1]) [nM]	FPRL1 (rel. eff.) (FPRL1; calcium, FLIPR Tetra)	EC50 (FPR1; [2]) [µM]	FPR1 (rel. eff.) (FPR1; calcium, FLIPR Tetra)	EC50 (FPR1; [3]) [µM]	EC50 (FPRL1; class symbol NA, read-out: FPRL1 EC50 (NA = Not Active)) [nM]	EC50 (FPR1; cells printed in μM, read-out: FPR1 EC50) [µM]
CC1(C)[C@@H]2CC[C@H]1[C@@H](C(=O)Nc1ccc(Cl)cc1)[C@H]2C(=O)O (racemic) [Compound 14, (+/−)-(1R,2S,3R,4S)-3-(4-Chlorophenylcarbamoyl)-7,7-dimethylbicyclo[2.2.1]heptane-2-carboxylic Acid]	36	0.86	> 10	–	–	–	–
CCOC(=O)C1C(C(=O)Nc2ccc(I)cc2)C2C=CC1C21CC1 (racemic) [Compound 17, Ethyl(+/−)-(1S,4R,5S,6R)-6-(4-Iodophenylcarbamoyl)spiro[bicyclo[2.2.1]hept[2]ene-7,1′-cyclopropane]-5-carboxylate]	243	0.76	> 10	–	–	–	–
CC(C)OC(=O)C1C(C(=O)Nc2ccc(I)cc2)C2C=CC1C21CC1 (racemic) [Compound 18, Iso-propyl(+/−)-(1S,4R,5S,6R)-6-(4-Iodophenylcarbamoyl)spiro[bicyclo[2.2.1]hept[2]ene-7,1′-cyclopropane]-5-carboxylate]	187	0.72	> 10	–	–	–	–
CC(C)=C1[C@H]2C=C[C@@H]1[C@H](C(=O)O)[C@@H]2C(=O)Nc1ccc(Br)cc1 (racemic) [Compound 20, (+/−)-(1S,4R,5S,6R)-6-(4-Bromophenylcarbamoyl) [bicyclo[2.2.1]hept[2]ene-7-propan-2-ylidene]-5-carboxylic Acid]	30	0.96	> 10	–	–	–	–
CC(C)=C1[C@H]2C=C[C@@H]1[C@@H](C(=O)O)[C@H]2C(=O)Nc1ccc(Br)cc1 (racemic) [Compound 21, (+/−)-(1S,4R,5R,6S)-6-(4-Bromophenylcarbamoyl)[bicyclo[2.2.1]hept[2]ene-7-propan-2-ylidene]-5-carboxylic Acid]	461	0.77	–	50	–	–	–
CC(C)=C1C2CCC1C(C(=O)Nc1ccc(Br)cc1)C2C(=O)O (racemic) [Compound 24, (+/−)-(1S,2R,3S,4S)-3-(4-Bromophenylcarbamoyl)[bicyclo[2.2.1]heptane-7-propan-2-ylidene]-2-carboxylic Acid]	164	0.89	–	–	8.3	–	–
O=C(O)C1C(C(=O)Nc2ccc(Br)cn2)C2C=CC1C21CC1 (racemic) [Compound 25, (+/−)-(1S,4R,5S,6R)-6-(5-Bromo-2-pyridylcarbamoyl)spiro[bicyclo[2.2.1]hept[2]ene-7,1′-cyclopropane]-5-carboxylic Acid]	149	0.74	> 10	–	–	–	–
O=C(O)C1C(C(=O)Nc2ccc(-c3ccccc3)cc2)C2C=CC1C21CC1 (racemic) [Compound 26, (+/−)-(1R,4S,5R,6S)-5-([1,1′-Biphenyl]-4-ylcarbamoyl)spiro[bicyclo[2.2.1]hept[2]ene-7,1′-cyclopropane]-6-carboxylic Acid]	2360	0.69	> 10	–	–	–	–
O=C(O)C1C(C(=O)Nc2cccc(C(F)(F)F)c2)C2C=CC1C21CC1 (racemic) [Compound 27, (+/−)-(1S,4R,5S,6R)-6-β3-(Trifluoromethyl)phenyl)carbamoyl)spiro[bicyclo-[2.2.1]hept[2]ene-7,1′-cyclopropane]-5-carboxylic Acid]	2770	0.72	> 10	–	–	–	–
O=C(O)C1C(C(=O)Nc2ccc(Cl)c(Cl)c2)C2C=CC1C21CC1 (racemic) [Compound 28, (+/−)-(1S,4R,5S,6R)-6-((3,4-Dichlorophenyl)carbamoyl)spiro[bicyclo[2.2.1]hept[2]-ene-7,1′-cyclopropane]-5-carboxylic Acid]	616	0.70	> 10	–	–	–	–
O=C(O)[C@@H]1[C@H](C(=O)Nc2ccc3c(c2)oc2ccccc23)[C@@H]2CC[C@H]1C21CC1 (racemic) [Compound 31, (+/−)-(1S,4R,5S,6R)-6-(dibenzo[b,d]furan-3-ylcarbamoyl)spiro[bicyclo[2.2.1]-heptane-7,1′-cyclopropane]-5-carboxylic acid]	2260	0.9	> 10	–	–	–	–
CC(=O)c1ccc(NC(=O)C2C(C(=O)O)C3C=CC2C32CC2)cc1 (racemic) [Compound 32, (+/−)-(1R,4S,5R,6S)-5-((4-Acetylphenyl)carbamoyl)spiro[bicyclo[2.2.1]hept[2]ene-7,1′-cyclopropane]-6-carboxylic Acid]	277	0.96	> 10	–	–	–	–
O=C(O)C1C(C(=O)Nc2ccc(O)cc2)C2C=CC1C21CC1 (racemic) [Compound 33, (+/−)-(1S,4R,5S,6R)-6-((4-Hydroxyphenyl)carbamoyl)spiro[bicyclo[2.2.1]hept[2]ene-7,1′-cyclopropane]-5-carboxylic Acid]	–	–	> 10	–	–	> 10000	–
O=C(O)C1C(C(=O)Nc2ccc(OC(F)(F)F)cc2)C2C=CC1C21CC1 (racemic) [Compound 34, (+/−)-(1S,4R,5S,6R)-6-β4-(Trifluoromethoxy)phenyl)carbamoyl)spiro[bicyclo-[2.2.1]hept[2]ene-7,1′-cyclopropane]-5-carboxylic Acid]	585	0.96	> 10	–	–	–	–
CSc1ccc(NC(=O)C2C(C(=O)O)C3C=CC2C32CC2)cc1 (racemic) [Compound 35, (+/−)-(1S,4R,5S,6R)-6-((4-(Methylthio)phenyl)carbamoyl)spiro[bicyclo-[2.2.1]hept[2]ene-7,1′-cyclopropane]-5-carboxylic Acid]	14	0.85	> 10	–	–	–	–
CCc1ccc(NC(=O)C2C(C(=O)O)C3C=CC2C32CC2)cc1 (racemic) [Compound 36, (+/−)-(1S,4R,5S,6R)-6-((4-Ethylphenyl)carbamoyl)spiro[bicyclo[2.2.1]hept[2]ene-7,1′-cyclopropane]-5-carboxylic Acid]	59	0.91	> 10	–	–	–	–
CCc1ccc(NC(=O)[C@H]2[C@@H](C(=O)O)[C@H]3CC[C@@H]2C32CC2)cc1 (racemic) [Compound 40, (+/−)-(1R,2S,3R,4S)-3-((4-Ethylphenyl)carbamoyl)spiro[bicyclo[2.2.1]heptane-7,1′-cyclopropane]-2-carboxylic Acid]	16	0.79	> 10	–	–	–	–
O=C(O)[C@@H]1[C@H](C(=O)Nc2ccc(OC(F)(F)F)cc2)[C@@H]2CC[C@H]1C21CC1 (racemic) [Compound 41, (+/−)-(1R,2S,3R,4S)-3-((4-(Trifluoromethoxy)phenyl)carbamoyl)spiro-[bicyclo[2.2.1]heptane-7,1′-cyclopropane]-2-carboxylic Acid]	123	0.80	> 10	–	–	–	–
CSc1ccc(NC(=O)[C@H]2[C@@H](C(=O)O)[C@H]3CC[C@@H]2C32CC2)cc1 (racemic) [Compound 42, (+/−)-(1R,2S,3R,4S)-3-((4-(Methylthio)phenyl)carbamoyl)spiro[bicyclo-[2.2.1]heptane-7,1′-cyclopropane]-2-carboxylic Acid]	7	0.96	–	0.23	1.1	–	–
CC(=O)c1ccc(NC(=O)[C@H]2[C@@H](C(=O)O)[C@H]3CC[C@@H]2C32CC2)cc1 (racemic) [Compound 43, (+/−)-(1S,2R,3S,4R)-2-((4-Acetylphenyl)carbamoyl)spiro[bicyclo[2.2.1]heptane-7,1′-cyclopropane]-3-carboxylic Acid]	49	0.71	–	0.50	–	–	> 10
C[S+]([O-])c1ccc(NC(=O)C2C(C(=O)O)C3CCC2C32CC2)cc1 (racemic) [Compound 44, (+/−)-(1R,2S,3R,4S)-3-((4-(Methylsulfinyl)phenyl)carbamoyl)spiro[bicyclo-[2.2.1]heptane-7,1′-cyclopropane]-2-carboxylic Acid]	475	0.95	> 10	–	–	–	–
NC(=O)C1C(C(=O)Nc2ccc(Br)cc2)C2CCC1C21CC1 (racemic) [Compound 46A]	6520	0.85	> 10	–	–	–	–
